Experimental data reported in PubChem BioAssay AID624409 (The Scripps Research Institute Molecular Screening Center, 2012).
pIC50: −log10 of the molar value. Activity calls are given as the source filed them.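 The calls were made as follows: active = IC50 at or below 10 µM; inactive = IC50 above 10 µM.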

Each compound was assayed against Orexin/Hypocretin receptor type 1 (Homo sapiens) (UniProt O43613) (assay: HCRTR1 antagonism, orexin A-evoked calcium – fluorescence, Fluo-8, CHO cells, powder samples, late-stage follow-up (AID 624409)). Conditions: CHO/OX1R cells, Fluo-8 calcium fluorescence.
Orexin/Hypocretin receptor type 1 (Homo sapiens), sequence (O43613 whole entry, looked up): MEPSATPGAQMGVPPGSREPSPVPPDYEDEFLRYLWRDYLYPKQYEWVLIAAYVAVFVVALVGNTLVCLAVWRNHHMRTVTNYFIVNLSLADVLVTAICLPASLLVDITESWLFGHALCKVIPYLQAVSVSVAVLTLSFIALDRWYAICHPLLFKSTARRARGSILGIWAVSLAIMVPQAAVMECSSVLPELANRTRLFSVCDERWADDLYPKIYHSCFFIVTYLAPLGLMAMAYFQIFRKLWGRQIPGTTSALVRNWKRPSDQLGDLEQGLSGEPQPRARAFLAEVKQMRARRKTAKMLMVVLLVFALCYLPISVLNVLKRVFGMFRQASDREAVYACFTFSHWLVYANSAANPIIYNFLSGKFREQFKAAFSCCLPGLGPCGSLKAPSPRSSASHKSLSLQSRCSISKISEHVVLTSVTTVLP

Row | SMILES | IC50 | pIC50
1 | COc1cc(OC)c(-c2nc3ccccc3s2)cc1OC | inactive | –
2 | Cc1c(NS(=O)(=O)c2cccc(C(=O)OCC(=O)N(C)C3CCCCC3)c2)c(=O)n(-c2ccccc2)n1C | inactive | –
3 | CCSC1=C(C#N)C(c2ccccc2Cl)C(C(=O)c2cccs2)C(O)(C(F)(F)F)N1 (stereo unspecified) | – | 5.30
4 | Cc1cccc(NC(=O)[C@@H]2CCCN2S(=O)(=O)c2ccc(Cl)cc2)c1 | > 19.9 µM (inactive) | –
5 | CC(=C/c1ccccc1)/C=C1/SC(N2CCOCC2)=NC1=O | – | 5.04
6 | CSc1cccc(NC(=O)C2CCCN2S(=O)(=O)c2ccc(Br)s2)c1 (stereo unspecified) | – | 5.33
7 | COc1ccc(OC)c(S(=O)(=O)NCC(c2ccco2)N2CCc3ccccc32)c1 (stereo unspecified) | – | 5.15
8 | COc1cccc(/C=C2/Oc3ccccc3N(CC(=O)NCC3CCCO3)C2=O)c1 (stereo unspecified) | – | 5.42
9 | Cc1cc(Cl)ccc1OCCCC(=O)NCCN1C(=O)S/C(=C\c2cccnc2)C1=O | – | 5.86
10 | CSc1cccc(N2CC(C(=O)NCCN3C(=O)S/C(=C\c4cccnc4)C3=O)CC2=O)c1 (stereo unspecified) | > 19.9 µM (inactive) | –
11 | Cc1ccccc1NC(=O)C1CCCN1S(=O)(=O)c1ccccc1C(F)(F)F (stereo unspecified) | > 19.9 µM (inactive) | –
12 | O=C(CN1C(=O)/C(=C\c2cccc(Br)c2)Oc2ccccc21)NCC1CCCO1 (stereo unspecified) | – | 5.30
13 | CN(N=Cc1cc([N+](=O)[O-])ccc1O)c1ccccc1 | > 59.6 µM (inactive) | –

Continued, values first:

Row | IC50 | pIC50 | SMILES
14 | inactive | – | CCc1cc(C(=O)OCC(=O)N2CCC(c3ccccc3)=N2)sc1C
15 | inactive | – | CCn1c(SCC(=O)Nc2ccc3c(c2)c2ccccc2n3CC)nnc1-c1cnccn1
16 | > 19.9 µM (inactive) | – | Cc1noc(C)c1COc1ccc(C(=O)OCC(=O)N2CC(=O)Nc3ccccc32)cc1
17 | > 19.9 µM (inactive) | – | O=c1cc(CN2CC(O)Cc3ccc4ccccc4c32)nc2sccn12 (stereo unspecified)
18 | – | 5.10 | O=C(CSc1ccc(-c2ccccc2)nn1)c1cccs1
19 | > 59.6 µM (inactive) | – | CCc1cc2c(SCC(=O)N(CC)c3c(N)n(Cc4ccccc4)c(=O)[nH]c3=O)ncnc2s1
20 | > 59.6 µM (inactive) | – | CCN(CC)c1ccc(NC(=O)Cn2c(C(C)NC(=O)c3ccccc3)nc3ccccc32)cc1 (stereo unspecified)
21 | inactive | – | Cc1ccc(-c2csc3nnc(SCC(=O)Nc4nsc(-c5ccccc5)n4)n23)cc1
22 | inactive | – | CCOc1ccccc1C(=O)Nc1ccc2nc3n(c(=O)c2c1)CCCCC3
23 | – | 5.57 | Cc1cccc(C=NNC(=O)c2cc3c(s2)-c2ccccc2CC3)c1
24 | > 59.6 µM (inactive) | – | CCOC(=O)N1CCN(C(=O)CSc2ccc(-c3ccccc3)nn2)CC1
25 | inactive | – | COCCCNC(=O)CCC(=O)NNc1nc2ccccc2c2nc(-c3ccccc3)nn12
26 | > 59.6 µM (inactive) | – | Fc1cccc(Nc2nc3ccccc3n3cnnc23)c1
